Laboratory results as given in US20260356851A1, “TRICYCLIC COMPOUNDS AND USES THEREOF” (HUTCHMED LIMITED, priority 2023, published 2026).
pIC50: −log10 of the molar value. Like-named read-outs stand apart in the source and are kept apart here.

What was measured:
Format in all cases: cell-based
[1] = target: T1, pERK1/2 (Thr202/Tyr204), PANC-1 (KRAS G121D) (Homo sapiens, UniProt P01116, G12D); experiment: Assay of intracellular pERK1/2 (Thr202/Tyr204) phosphorylation in PANC-1 cells (KRAS G12D)
T1 construct: pERK1/2 HTRF read-out
T1 sequence (P01116 1-188 isoform P01116-2 G12D): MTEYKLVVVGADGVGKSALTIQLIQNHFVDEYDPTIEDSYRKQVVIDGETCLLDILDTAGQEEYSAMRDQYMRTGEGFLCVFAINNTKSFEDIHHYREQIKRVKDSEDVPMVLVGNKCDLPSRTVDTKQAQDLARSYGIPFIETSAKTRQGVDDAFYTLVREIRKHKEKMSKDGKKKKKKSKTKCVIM
Procedure, shortened: (§1)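 Cells (10000-12000/well) exposed to 3-fold compound dilutions for 2 days at 37 °C, then lysed; pERK1/2 (Thr202/Tyr204) measured by HTRF with d2 and cryptate antibodies, 665/615 nm ratio.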

[2] = target: T2, pERK1/2 (Thr202/Tyr204), NCI-1H441 (KRAS G12V) (Homo sapiens, UniProt P01116, G12V); experiment: Assay of intracellular pERK1/2 (Thr202/Tyr204) phosphorylation in NCI-H441 cells (KRAS G12V)
T2 construct: pERK1/2 HTRF read-out
T2 sequence (P01116 1-188 isoform P01116-2 G12V): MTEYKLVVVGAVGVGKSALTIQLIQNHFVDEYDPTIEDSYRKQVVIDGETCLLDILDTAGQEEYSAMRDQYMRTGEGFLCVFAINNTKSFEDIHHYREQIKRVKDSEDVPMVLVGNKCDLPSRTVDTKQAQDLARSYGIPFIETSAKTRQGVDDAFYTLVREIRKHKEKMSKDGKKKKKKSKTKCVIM
Procedure, shortened: as §1

[3] = target: T3, pERK1/2 (Thr202/Tyr204), NCI-1H358 (KRAS G12C) (Homo sapiens, UniProt P01116, G12C); experiment: Assay of intracellular pERK1/2 (Thr202/Tyr204) phosphorylation in NCI-H358 cells (KRAS G12C)
T3 construct: pERK1/2 HTRF read-out
T3 sequence (P01116 1-188 isoform P01116-2 G12C): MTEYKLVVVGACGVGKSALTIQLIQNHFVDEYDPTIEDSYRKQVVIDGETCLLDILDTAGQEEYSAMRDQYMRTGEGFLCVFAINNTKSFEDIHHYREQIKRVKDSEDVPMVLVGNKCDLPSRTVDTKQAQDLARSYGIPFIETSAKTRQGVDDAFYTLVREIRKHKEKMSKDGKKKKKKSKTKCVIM
Procedure, shortened: as §1

[4] = pERK1/2, 2 days, read-out: PANC-1 (KRAS G12D) IC50
[5] = pERK1/2, 2 days, read-out: NCI-H441 (KRAS G12V) IC50
[6] = pERK1/2, 2 days, read-out: NCI-H358 (KRAS G12C) IC50

Row | SMILES | pIC50 [1, 4] | pIC50 [2, 5] | pIC50 [3, 6] | pIC50 ([1]; read-out: PANC-1 (KRAS G12D) IC50, pERK1/2, 2 days) | pIC50 ([2]; read-out: NCI-H441 (KRAS G12V) IC50, pERK1/2, 2 days) | pIC50 ([3]; read-out: NCI-H358 (KRAS G12C) IC50, pERK1/2, 2 days)
1 | CC(c1cccnc1N)N1CCOc2nc(-c3cc(N)ccc3C(F)(F)F)c(F)c3nc(OC[C@@]45CCCN4C[C@H](F)C5)nc1c23 (single isomer, unassigned) [Compound 54, 3-((R or S)-1-(5-(5-amino-2-(trifluoromethyl)phenyl)-4-fluoro-2-(((2R,7aS)-2-fluorotetrahydro-1H-pyrrolizin-7a(5H)-yl)methoxy)-8,9-dihydro-10H-7-oxa-1,3,6,10-tetraazacyclohepta[de]naphthalen-10-yl)ethyl)pyridin-2-amine] | 7.68 | 8.70 | 9.15 | – | – | –
2 | Cc1cc(N)cc(-c2nc3c4c(nc(OC[C@]56CCCN5[C@@H](CO)CC6)nc4c2F)N([C@H](C)c2cccnc2N)CCO3)c1C(F)(F)F (single isomer, unassigned) [Compound 100, ((3R,7aR)-7a-(((5-(5-amino-3-methyl-2-(trifluoromethyl)phenyl)-10-((R or S)-1-(2-aminopyridin-3-yl)ethyl)-4-fluoro-9,10-dihydro-8H-7-oxa-1,3,6,10-tetraazacyclohepta[de]naphthalen-2-yl)oxy)methyl)hexahydro-1H-pyrrrolizin-3-yl)methanol] | < 7.00 | < 7.00 | 7.03 | – | – | –
3 | CC(c1cccnc1N)N1CCOc2nc(-c3cc(O)cc(Cl)c3C3CC3)c(F)c3nc(OC[C@@]45CCCN4C[C@H](F)C5)nc1c23 (stereo partly drawn) [Compound 4] | 8.00 | 8.70 | 9.00 | – | – | –
4 | [2H]C1([2H])CN(C(C)c2cccnc2N)c2nc(OC[C@@]34CCCN3C[C@H](F)C4)nc3c(F)c(-c4cc(N)c(F)c(C)c4C(F)(F)F)nc(c23)O1 (stereo partly drawn) [Compound 157] | 8.70 | 9.30 | 9.52 | – | – | –
5 | CCc1c(F)ccc2cc(OC(=O)N3CCOCC3)cc(-c3nc4c5c(nc(OC[C@@]67CCCN6C[C@H](F)C7)nc5c3F)N(C(C)c3cccnc3N)[C@@H](C)CO4)c12 (stereo partly drawn) [Compound 307] | – | – | – | 7.80 | 7.64 | 7.89
6 | Cc1cc(N)cc(-c2nc3c4c(nc(OC[C@H]5CCCN5CCF)nc4c2F)N(C(C)c2cccnc2N)CCO3)c1C(F)(F)F (single isomer, unassigned) [Compound 79, 3-((R or S)-1-(5-(5-amino-3-methyl-2-(trifluoromethyl)phenyl)-4-fluoro-2-(((R)-1-(2-fluoroethyl)pyrrolidin-2-yl)methoxy)-8,9-dihydro-10H-7-oxa-1,3,6,10-tetraazacyclohepta[de]naphthalen-10-yl)ethyl)pyridin-2-amine] | < 7.00 | < 7.00 | < 7.00 | – | – | –
7 | CC(c1cccnc1N)N1CCOc2nc(-c3cc(N)c(F)c(Cl)c3C3CC3)c(F)c3nc(OC[C@@]45CCCN4C[C@H](F)C5)nc1c23 (stereo partly drawn) [Compound 232] | 8.30 | 9.05 | 9.70 | – | – | –
8 | Cc1cc(N)nc(-c2nc3c4c(nc(OC[C@@]56CCCN5C[C@H](F)C6)nc4c2F)N(C(C)c2cccnc2N)[C@@H](C)CO3)c1 (stereo partly drawn) [Compound 329] | < 7.00 | < 7.00 | < 7.00 | – | – | –
9 | C[C@H](c1cccnc1N)N1CCOc2nc(-c3c(C(F)(F)F)ccc4[nH]ncc34)c(F)c3nc(OC[C@@]45CCCN4C[C@H](F)C5)nc1c23 (single isomer, unassigned) [Compound 26, 3-((1R or 1S)-1-(4-fluoro-2-(((2R,7aS)-2-fluorotetrahydro-1H-pyrrolizin-7a(5H)-yl)methoxy)-5-(5-(trifluoromethyl)-1H-indazol-4-yl)-8,9-dihydro-10H-7-oxa-1,3,6,10-tetraazacyclohepta[de]naphthalen-10-yl)ethyl)pyridin-2-amine] | < 6.00 | < 6.00 | 6.05 | – | – | –
10 | [2H]C([2H])(Oc1nc2c3c(nc(-c4cc(N)c(F)cc4C(F)(F)F)c(F)c3n1)OCCN2C(C)c1cccnc1N)[C@@H]1C[C@@H](F)CN1C([2H])([2H])[2H] (stereo partly drawn) [Compound 136] | < 7.00 | 7.21 | 7.77 | – | – | –
